Several values for one entry are separate records, joined by “and”; a condition that tells them apart may be missing. Equal values may be shown once. Read-outs that look alike come from different tables or passages of the source.
Key:
Assay type in all cases: in vivo
6-OHDA injected mice [1] = assay: TH protein expression in 6-OHDA-treated striatum; conditions: 3 mg/kg, two-day pre-treatment
Protocol: (§1) Immunohistochemistry analysis using anti-tyrosine hydroxylase (TH) antibody was also performed to quantify 6-OHDA-induced neuronal loss in mice injected with 6-OHDA and non-injected (control) sides of the brain. […] FIG. 4B presents the mean and standard error of the mean (SEM) as well as statistical analysis of the results. […] This staining data was confirmed by staining for TH protein expression in the 6-OHDA-treated striatum.

6-OHDA injected mice [2] = assay: Anti-TH immunohistochemistry, 6-OHDA-induced TH+ neuronal loss in SN; conditions: 10 mg/kg
Protocol: as §1

6-OHDA injected mice [3] = assay: 6-OHDA cylinder test (motor performance); conditions: 10 mg/kg, three days pre-treatment before 6-OHDA (80 μg); seven day test
Protocol: The data presented in FIG. 2B as mean and standard error of the mean (SEM), for a seven day test. Statistical analyses as compared to baseline mice were performed using the one-way Anova test (*: p<0.05). […] Data is presented as mean and SEM. Statistical analyses were performed using one-way Anova test (*: p<0.05; ***: p<0.001. n.s.: not significant.)

6-OHDA injected mice [4] = assay: Anti-TH immunohistochemistry, 6-OHDA-induced striatal denervation; conditions: 10 mg/kg
Protocol: Immunohistochemistry analysis using anti-tyrosine hydroxylase (TH) antibody was performed in mouse midbrain sections to quantify 6-OHDA-induced striatal denervation in mice injected with 6-OHDA and non-injected (control) sides of the brain. […] In contrast, both the 6-OHDA/rapamycin-treated and the 6-OHDA/Formula I-treated sides of the brain show increased staining with the anti-TH antibody, as indicated by the dark shading in those figures. FIG. 3B presents the mean and standard error of the mean (SEM) of the integrated density of anti-TH antibody staining in the striatum, as well as statistical analysis of the results for the groups of mice.

[5] = Brain concentrations after IP administration to mice (LC-MS/MS of brain homogenates); conditions: for Concentration in Mouse Brain, individual animals / concentration at 24 h: Day 3, 24.0 hrs; for Concentration in Mouse Brain, individual animals: Animal ID 1-3; for concentration at 24 h: mouse, brain, ip
Protocol: To carry out these assays using brain homogenates, 20 uL of samples and matrix calibration standards into wells of a 96-well plate, and 10 uL of blank matrix allocated for matrix blanks and control blanks. 160 uL internal standard was then added to all samples except matrix blanks, and 160 uL ACN added to matrix blanks. Samples were then vortexed for 5 minutes and centrifuge for 5 minutes at >3500 rpm. 150 uL of the supernatant was then transferred to a new 96-well plate, and the plates blown down to dryness at 35° C., reconstituted with 90 uL of 70:30 water:acetonitrile (ACN) solution, covered and vortexed prior to analysis. LC and MS conditions were the same as described above for the whole blood analysis.

[6] = Whole blood concentrations after IP administration to mice (LC-MS/MS); conditions: for concentration at 1 h: Day 3, 1.00 hrs; for concentration at 24 h: Day 3, 24.0 hrs
Protocol: These determinations were made using protein precipitation, liquid chromatography (LC), and mass spectrometry (MS/MS). Ten μl aliquots of whole blood and matrix calibration standards were distributed in a 96-well plate; 10 μl aliquots of blank matrix for matrix blanks and control blanks were included as controls. Ten μl of water was added to each sample followed by vortexing. […] This was followed by a five-minute vortex at >3500 rpm. One hundred fifty μl of the resultant supernatant was then transferred to a new 96-well plate and the samples blown to dryness at 35° C. […]

[7] = 2 mg/kg or 10 mg/kg IP QD for three days
[8] = mouse, whole blood, intraperitoneal, 10 mg/kg, 10 mg/kg IP QD x 3 days, Animal ID 4-6, read-out: Concentration in Mouse Whole Blood, individual animals
[9] = mouse, whole blood, intraperitoneal, 10 mg/kg, 10 mg/kg IP QD x 3 days, read-out: Concentration in Mouse Whole Blood, Mean

Concentration in Mouse Brain, individual animals ([5]; Group 1 (2 mg/kg) IP QD x 3 days, 2 mg/kg): 31.1 ng/g and 39.2 ng/g and 68.1 ng/g
Concentration in Mouse Brain, individual animals ([5]; Group 2 (10 mg/kg) IP QD x 3 days, 10 mg/kg): 140 ng/g (2×) and 299 ng/g
concentration at 24 h ([5]; 2 mg/kg, Group 1 (2 mg/kg) IP QD x 3 days): 46.1 ng/g
concentration at 24 h ([5]; 10 mg/kg, Group 2 (10 mg/kg) IP QD x 3 days): 193 ng/g
concentration at 1 h [6, 8]: 2890 ng/mL
concentration at 1 h [6, 9]: 3200 ng/mL
concentration at 2 h ([6]; mouse, whole blood, intraperitoneal, 10 mg/kg, 10 mg/kg IP QD x 3 days, Day 3, 2.00 hrs): 1900 ng/mL
concentration at 6 h ([6]; mouse, whole blood, intraperitoneal, 10 mg/kg, 10 mg/kg IP QD x 3 days, Day 3, 6.00 hrs): 1380 ng/mL
concentration at 24 h [6, 8]: 292 ng/mL
concentration at 24 h [6, 9]: 372 ng/mL
Compound: CO[C@H]1C[C@@H]2CC[C@@H](C)[C@@](O)(O2)C(=O)C(=O)N2CCCC[C@H]2C(=O)O[C@H]([C@H](C)C[C@@H]2C[C@@H]3C[C@H]2C[C@H]3O)CC(=O)[C@H](C)/C=C(\C)[C@@H](O)[C@@H](OC)C(=O)[C@H](C)C[C@H](C)/C=C/C=C/C=C/1C [Formula I, 37R-hydroxynorbornylrapamycin]
TH protein expression in 6-OHDA-treated striatum (FIGS. 4C-4F) (6-OHDA injected mice [1]): non-statistically significant difference
6-OHDA-induced neuronal loss vs vehicle control (TH-positive somas in SN, FIG. 4A) (6-OHDA injected mice [2]): decreased 6-OHDA-induced neuronal loss as compared to vehicle control
Contralateral touches, percent total touches (FIG. 2B) (6-OHDA injected mice [3]): outperformed rapamycin and the vehicle control by bringing the number of touches closer to that of baseline mice
6-OHDA-induced striatal denervation vs rapamycin (FIG. 3A) (6-OHDA injected mice [4]): also decreased 6-OHDA-induced denervation as compared to rapamycin
6-OHDA-induced striatal denervation vs vehicle control (TH integrated density, FIG. 3A) (6-OHDA injected mice [4]): decreased 6-OHDA-induced denervation as compared to vehicle control
Brain exposure (in words) [5, 7]: sufficient concentrations in brain over time
Whole blood exposure (in words) [6, 7]: sufficient concentrations in whole blood over time
Concentration in Mouse Whole Blood, individual animals ([6]; 10 mg/kg IP QD x 3 days, Day 2, 1.00 hrs, Animal ID 4-6): AQL (Original value above quantitation limit (1000 ng/mL))
Concentration in Mouse Whole Blood, individual animals ([6]; 10 mg/kg IP QD x 3 days, Day 2, 6.00 hrs, Animal ID 4-6): AQL (Original value above quantitation limit (1000 ng/mL))

From patent US20210030726A1 (MOUNT TAM THERAPEUTICS, INC., priority 2018, published 2021)
